Source: patent US20240391950A1, “PEPTIDE CROSSLINKING AGENT AND CROSSLINKED PEPTIDE WHICH IS CROSSLINKED USING SAID CROSSLINKING AGENT” (Kagoshima University, priority 2020, published 2024)
Starred links: 1 amine or outer side, 2 acyl side, 3 side chain; linkers in the order of their positions; H or OH if unused. Positions of bridges follow the written chain, without caps; N, C: chain ends. Residues, ends and D or L forms follow the SMILES beside them. X4 = C#CCON=C(C)C([*:1])[*:2]

Legend:
human IgG1 = human IgG1 (Homo sapiens, UniProt P01857); test: SPR (BIAcore T200) measurement of binding affinity of crosslinked cyclic peptide to immobilized IgG
Sequence of human IgG1 (P01857 1-328 limits assumed): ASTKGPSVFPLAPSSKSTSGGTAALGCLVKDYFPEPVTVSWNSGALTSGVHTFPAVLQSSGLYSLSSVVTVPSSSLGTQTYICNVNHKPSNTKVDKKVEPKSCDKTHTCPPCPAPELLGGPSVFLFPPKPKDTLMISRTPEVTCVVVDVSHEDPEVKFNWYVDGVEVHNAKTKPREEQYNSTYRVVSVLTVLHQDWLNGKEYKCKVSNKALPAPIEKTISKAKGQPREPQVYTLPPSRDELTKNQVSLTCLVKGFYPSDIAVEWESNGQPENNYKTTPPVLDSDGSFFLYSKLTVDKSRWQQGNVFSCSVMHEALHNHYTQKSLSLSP
Experimental: The affinity analysis was performed by the following method. First, a CM5 sensor chip was installed on BIAcoreT200 (GE healthcare), and 0.4 M 1-ethyl-3-(3-dimethylaminopropyl)carbodiimide (EDC) and a 0.1 M sulfo-N-hydroxysuccinimide (sulfo-NHS) solution mixed in equivalent amounts were injected to the sensor chip at a flow rate of […], to thereby activate the sensor chip. Thereafter, IgG was immobilized onto the sensor chip under a condition of a pH of 5.5 (10 mM Na acetate). An HBS-EP buffer (10 mM HEPES, 150 mM NaCl, 0.005% Tween 20, 3 mM EDTA, pH 7.4) was used in measurement, and 15.625, 31.2, 62.5, 125, 250, and 500 nM of peptides were each injected at a flow rate of […] for 180 seconds, to thereby monitor binding reaction. When dissociation reaction was measured, only the buffer was injected for 600 seconds. The interaction parameter was analyzed with BIAevaluation T100 software.
IgG-binding peptide derivatives compared and evaluated are illustrated in FIG. 1.

α-chymotrypsin = target: T1, α-chymotrypsin (Bos taurus, UniProt P00766); test: Resistance to α-chymotrypsin digestion followed by reverse-phase HPLC; assay type: in vitro ADME, bovine; conditions: for change of HPLC peak after addition of α-chymotrypsin: α-chymotrypsin 1/10 weight ratio, 37° C.; for resistance to protease (FIG. 10): α-chymotrypsin
T1 construct: purchased MP Biomedicals; host or cells: bovine pancreas
Experimental: For evaluation of stability of a peptide by crosslinking reaction, resistivity of α-chymotrypsin (derived from bovine pancreas, manufactured by MP Biomedicals) to protease decomposition was evaluated with oxytocin crosslinked by 2,2-dichloroacetophenone. Crosslinking of oxytocin by 2,2-dichloroacetophenone was performed in the same manner with replacement of 1.1-dichloroacetone in Example 11 by 2,2-dichloroacetophenone, and an objective product was taken by reverse-phase HPLC. Specifically, 10 mg (10 μmol) of oxytocin acetate was dissolved in 3 mL of a 0.1 M HEPES hydrochloric acid buffer (pH 8.0), the solution was mixed with 2 mL of a 0.1 M HEPES hydrochloric acid buffer (pH 8.0) containing 57.4 mg (200 μmol) of TCEP-HCl, and the mixture was stirred for 1 hour. Next, 8.3 mg (44 μmol) of 2,2-dichloroacetophenone dissolved in 0.44 mL of acetonitrile was added and mixed, and the mixture was stirred at room temperature for 1 hour. The resulting sample was applied to an InertSustain C18 column (5 μm, 14×250 mm, manufactured by GL Sciences Inc.) (flow rate 5 mL/min) connected to LC-Forte (manufactured by YMC). The elution was performed at a linear gradient from 4% to 70% (containing 0.1% formic acid). An objective product was taken, and freeze-dried after removal of acetonitrile at a negative pressure.
Evaluation was made with oxytocin-OX and an oxytocin SH reduced form (oxytocin-RD) shown by the following formula A3 used as comparison subjects. In other words, an oxytocin solution obtained by dissolution in a 0.1 M phosphate buffer (pH 7.0) at 0.5 mg/mL was adopted as oxytocin-OX, and a substance obtained after a lapse of 30 minutes from addition of an oxytocin solution obtained by dissolution in a 0.1 M phosphate buffer (pH 7.0) containing 0.5 mg/mL TCEP, at 0.5 mg/mL, was adopted as oxytocin-RD. To 200 μL of each of these solutions was 10 μL ( 1/10 on weight ratio to oxytocin) of 1 mg/mL α-chymotrypsin, and the resultant was subjected to incubation at 37° C. and analysis by reverse-phase HPLC. In the case of blank, a phosphate buffer was added instead of α-chymotrypsin.
A substance obtained after a lapse of 30 minutes from dissolution of 0.5 mg/mL oxytocin-DP purified, in a 0.1 M phosphate buffer (pH 7.0) containing 0.5 mg/mL TCEP, was adopted as a sample, and similarly α-chymotrypsin was added and analysis by reverse-phase HPLC was made.

human serum-derived IgG = test: Dynamic binding capacity (DBC) measurement and alkali resistance evaluation of peptide-immobilized column; conditions: for Dynamic binding capacity: 10% breakthrough
Experimental: Five mL of 1 mM hydrochloric acid was sent to an NHS-activated prepacked column having a volume of 1 mL, and an isopropanol solution in the column was removed. Next, a 10.0 mg/mL peptide solution (dissolved in 100 μL of DMSO) was diluted with a coupling solution (20 mM carbonate buffer, 50 mM sodium chloride, pH 8.3) by 10-fold, 1 mL of the dilution liquid was sent, and immobilization was performed at room temperature for 4 hours. Thereafter, unreacted NHS was blocked by 5 mL of 1 M Tris (pH 8.0) at room temperature for 1 hour. Thereafter, washing with 5 mL of an aqueous 0.1 N NaOH solution was made. Finally, 10 mL of a PBS solution (20 mM phosphate buffer, 150 mM sodium chloride, pH 7.4) was sent, and used in chromatography evaluation.
A column where the amount of immobilization of a peptide was 1 mg was produced by the same method as described above. The column produced was equilibrated with PBS, and 1 mg/mL human serum-derived IgG (manufactured by Sigma-Aldrich Co. LLC) dissolved in PBS was sent at a flow rate of 1 mL/min (retention time 1 min). DBC was indicated as one determined from the amount of a protein added at the time of point where 10% of the absorbance at 280 nm of the sample added was leaked.
Next, 5 mL of an aqueous 0.1 N sodium hydroxide solution was sent to the 1-mL column where 1 mg of the peptide was immobilized. Thereafter, washing with PBS was performed. This cycle was repeated 30 times for the 1,1-dichloroacetone-crosslinked cyclic peptide, and was repeated 10 times for the 1,1-dichloropinacolin-crosslinked cyclic peptide. DBC measurement was performed at a flow rate of 1 mL/min at the 1st to 5th and 10th times of the cycles, and further performed at the 20th and 30th times of the cycles with respect to the 1,1-dichloroacetone-crosslinked cyclic peptide, and thus alkali resistance was evaluated. The variation in DBC was determined based on the measurement results under the assumption that DBC immediately after column production was 100% according to Table 2.
Five mL of a 0.1 M sodium hydroxide solution was sent to the produced 1-mL column where the amount of immobilization of a peptide was 1 mg, and thereafter washing with 5 mL of PBS was performed. These operations were defined as one cycle and treatment of washing with aqueous NaOH solution/washing with PBS was performed 1 to 30 times, and thereafter DBC measurement was performed at a flow rate of 1 mL/min at the intended number of times (1, 2, 3, 4, 5, 10, 20, 30 times).

human IgG1 (human) [1] = test: SPR, same affinity measurement as in Example 4
human IgG1 (human) [2] = test: SPR, BIAcore T200, IgG immobilised on CM5 chip, peptide as analyte
human IgG1 (human) [3] = test: SPR, BIAcore T200, IgG immobilised on CM5 chip
[4] = target: human serum-derived IgG (manufactured by Sigma-Aldrich Co. LLC); test: peptide-immobilised column, human serum IgG, 10% breakthrough
[5] = 0.1 M phosphate buffer pH 7.0 containing 0.5 mg/mL TCEP
[6] = in the presence of reducing agent TCEP
[7] = number of washing times with 0.1 N NaOH: 1

## C#CCON=C(C)C1SC[C@H](NC(=O)[C@H](CC(=O)O)NC(=O)[C@@H]2CCCN2C(=O)CNC(=O)[C@H](CO)NC(=O)CNC(=O)CNC(=O)[C@H](CO)NC(=O)CN)C(=O)N[C@@H](C)C(=O)N[C@@H](Cc2ccc(O)cc2)C(=O)N[C@@H](Cc2c[nH]cn2)C(=O)N[C@@H](CCCNC(=N)N)C(=O)NCC(=O)N[C@@H](CCC(=O)O)C(=O)N[C@@H](CC(C)C)C(=O)N[C@@H](C(C)C)C(=O)N[C@@H](Cc2c[nH]c3ccccc23)C(=O)N[C@H](C(=O)N[C@H](C(=O)N[C@@H](Cc2ccccc2)C(=O)N[C@@H](Cc2c[nH]cn2)C(N)=O)[C@@H](C)O)CS1 (stereo partly drawn) (H-GSGGSGPDCAYHRGELVWCTFH-NH2; linker 9-19 via X4; C-terminus assumed)
Human IgG1; Kd relative to original disulfide IgG-binding peptide
  reduction of affinity as compared with the original peptide: about 42 fold
Human IgG1; SPR, human IgG1
  Kd: 334 nM

## CCC(C)C1NC(=O)C(Cc2ccc(O)cc2)NC(=O)C(N)CSC(C(=O)c2ccccc2)SCC(C(=O)N2CCCC2C(=O)NC(CC(C)C)C(=O)NCC(N)=O)NC(=O)C(CC(N)=O)NC(=O)C(CCC(N)=O)NC1=O (stereo not drawn) [oxytocin-DP]
α-chymotrypsin; [5]
  change of HPLC peak after addition of α-chymotrypsin: no decrease was observed
α-chymotrypsin; [6]
  resistance to protease (FIG. 10): high resistance

## CCC(C)C(NC(=O)C(Cc1ccc(O)cc1)NC(=O)C(N)CS)C(=O)NC(CCC(N)=O)C(=O)NC(CC(N)=O)C(=O)NC(CS)C(=O)N1CCCC1C(=O)NC(CC(C)C)C(=O)NCC(N)=O (stereo not drawn) [oxytocin-RD]
α-chymotrypsin; [5]
  change of HPLC peak after addition of α-chymotrypsin: any peak disappeared after only 10 minutes
α-chymotrypsin; [6]
  resistance to protease (FIG. 10): extremely low

## CCC(C)C1NC(=O)C(Cc2ccc(O)cc2)NC(=O)C(N)CS/C(=C/c2ccccc2)SCC(C(=O)N2CCCC2C(=O)NC(CC(C)C)C(=O)NCC(N)=O)NC(=O)C(CC(N)=O)NC(=O)C(CCC(N)=O)NC1=O (stereo not drawn) [oxytocin-DP-RDH]
α-chymotrypsin; [5]
  change of HPLC peak after addition of α-chymotrypsin: no decrease was observed
α-chymotrypsin; [6]
  resistance to protease (FIG. 10): high resistance

## CC(C)C[C@@H]1NC(=O)[C@H](CCC(=O)O)NC(=O)CNC(=O)[C@H](CCCNC(=N)N)NC(=O)[C@H](Cc2c[nH]cn2)NC(=O)[C@H](Cc2ccc(O)cc2)NC(=O)[C@H](C)NC(=O)[C@@H](NC(=O)[C@H](CC(=O)O)NC(=O)[C@@H]2CCCN2C(=O)CNC(=O)[C@H](CO)NC(=O)CNC(=O)CNC(=O)[C@H](CO)NC(=O)CN)CSSC[C@@H](C(=O)N[C@H](C(=O)N[C@@H](Cc2ccccc2)C(=O)N[C@@H](Cc2c[nH]cn2)C(=O)O)[C@@H](C)O)NC(=O)[C@H](Cc2c[nH]c3ccccc23)NC(=O)[C@H](C(C)C)NC1=O [IgG-BP-LongGS Original] (H-GSGGSGPDCAYHRGELVWCTFH-OH; disulfide 9-19; N-terminus and C-terminus assumed)
Human IgG1; SPR, IgG immobilized on CM5 chip, HBS-EP pH 7.4
  kd: 0.019
Human IgG1; SPR, IgG immobilized on CM5 chip, HBS-EP pH 7.4, in M-1 s-1 (unit assumed)
  ka: 2.37E+06
Human serum-derived IgG; 0.1 M NaOH washing/PBS washing, 1 to 30 cycles
  change in amount of binding of the antibody to the column by alkali washing (FIG. 2): reduced by alkali washing
Human serum-derived IgG; before repeated alkali washing, 1 mL/min
  value of DBC, by itself, of peptide-immobilized column: 17.24 mg/mL
Human serum-derived IgG; initial value, 1 mg peptide on 1-mL column, 1 mL/min
  initial value of DBC of peptide column: 17.24 mg/mL-column
Human serum-derived IgG; [7]
  Variation (%) in dynamic binding capacity: 100.0%
  Variation (%) in maximum binding capacity: 100.0%
Human serum-derived IgG; number of washing times with 0.1 N NaOH: 1, 1 mg peptide on 1-mL column
  Maximum binding capacity: 12.37 mg
Human serum-derived IgG; number of washing times with 0.1 N NaOH: 1, 1 mL/min
  Dynamic binding capacity: 17.24 mg/mL
Human serum-derived IgG; number of washing times with 0.1 N NaOH: 5
  Variation (%) in maximum binding capacity: 49.2%
Human serum-derived IgG; number of washing times with 0.1 N NaOH: 5, 1 mg peptide on 1-mL column
  Maximum binding capacity: 6.09 mg
Human serum-derived IgG; number of washing times with 0.1 N NaOH: 5, 1 mL/min
  Dynamic binding capacity: 8.74 mg/mL
Human serum-derived IgG; number of washing times with 0.1 N NaOH: 5, listed as IgG-BP-LGS
  Variation (%) in dynamic binding capacity: 50.7%
Human serum-derived IgG; number of washing times with 0.1 N NaOH: 5, listed as original IgG-binding peptide-immobilized column having a disulfide bond
  Variation (%) in dynamic binding capacity: ≤ 50%

## CCC(C)C1NC(=O)C(Cc2ccc(O)cc2)NC(=O)C(N)CSSCC(C(=O)N2CCCC2C(=O)NC(CC(C)C)C(=O)NCC(N)=O)NC(=O)C(CC(N)=O)NC(=O)C(CCC(N)=O)NC1=O (stereo not drawn) [oxytocin-OX, Cys-Tyr-Ile-Gln-Asn-Cys-Pro-Leu-Gly-NH2]
α-chymotrypsin; 0.1 M phosphate buffer pH 7.0, no TCEP, 15 minutes to 2 hours
  change of HPLC peak after addition of α-chymotrypsin: no change of any peak was observed
α-chymotrypsin; no TCEP
  resistance to protease (FIG. 10): high protease resistance

B1: alkyne functional group-introduced, crosslinked and cyclized peptide (1,1-dichloroacetone-crosslinked IgG-BP-LongGS reacted with O-2-Propynylhydroxylamine) (peptide)
peptide: GSGGSGPDCAYHRGELVWCTFH
modifications: not fully specified; the two Cys thiols crosslinked with 1,1-dichloroacetone; the crosslink reacted with O-2-Propynylhydroxylamine hydrochloride to introduce an alkyne group
Human IgG1 (human) [1]
  Kd: 334 nM
  fold reduction of affinity against the original peptide: 42 fold

B2: 2,2-dichloroacetophenone-crosslinked cyclic peptide of IgG-BP-LongGS (peptide)
peptide: GSGGSGPDCAYHRGELVWCTFH
modifications: the thiol groups of the two Cys residues crosslinked with 2,2-dichloroacetophenone in place of the disulfide bond; Fmoc removed
Human IgG1 (human) [2]
  Kd: 6.4 nM

B3: 1,3-dichloroacetone-crosslinked cyclic peptide of IgG-BP-LongGS (peptide)
peptide: GSGGSGPDCAYHRGELVWCTFH
modifications: the thiol groups of the two Cys residues crosslinked with 1,3-dichloroacetone in place of the disulfide bond
Human IgG1 (human) [3]
  fold reduction of affinity against the original peptide: 500 fold
[4]
  initial value of DBC: 2.3 mg/mL-column
Human IgG1 (human) [2]
  Kd: 4900 nM
